# Key:
# [1] = target: T1, ANC1 (synthetic construct, UniProt Z9HSK4K2R8); test: NADH coupled pyrophosphate release assay; assay type: biochemical; conditions: 1 mM substrate, 0.5 mM ATP, 10 mM MgCl2, pH 7.4, 30 °C
# T1 construct: resurrected ancestral A-domain, N-terminal His6-SUMO, C-terminal STREP tag, co-expressed with Tcp13 in E. coli BL21(DE3); with MbtH-like protein Tcp13 (Actinoplanes teichomyceticus)
# [2] = target: T2, ANC2 (ANC2int) (synthetic construct, UniProt Z9RCC4OUL6); test: NADH coupled pyrophosphate release assay; assay type: biochemical; conditions: 1 mM substrate, 0.5 mM ATP, 10 mM MgCl2, pH 7.4, 30 °C
# T2 construct: resurrected ancestral A-domain, N-terminal His6-SUMO, C-terminal STREP tag, co-expressed with Tcp13 in E. coli BL21(DE3); with MbtH-like protein Tcp13 (Actinoplanes teichomyceticus)
smiles,measurement,setting,value
N[C@@H](C(=O)O)c1ccc(O)cc1 [D-Hpg],NADH coupled pyrophosphate release assay,[1],with a fourfold preference for the L-form
CC(C)C[C@@H](N)C(=O)O [D-Leu],NADH coupled pyrophosphate release assay,[2],ANC2 and ANC3 were both selective for Leu
CC(C)C[C@H](N)C(=O)O [L-Leu],NADH coupled pyrophosphate release assay,[2],ANC2 and ANC3 were both selective for Leu
